# Test results taken from patent US4906658A, “Fluoro-sulfones” (Merck Frosst Canada, Inc., priority 1987, dated 1990).
# Values joined by “and” are separate entries in the source; they are usually repeats but may differ in a detail not shown here. Equal entries are not always repeated. Where two headings read alike, the source gives them in different places.
# How the values were obtained:
# [1] = system: antigen (egg albumin)-induced continuous dyspnea in inbred asthmatic rats; conditions: 3 μg/kg i.v. before challenge; cited from earlier work
# [2] = system: antigen (egg albumin)-induced continuous dyspnea in inbred asthmatic rats; assay: Asthmatic Rat Assay: duration of continuous dyspnea after aerosolized antigen challenge in sensitized inbred asthmatic rats; type: in vivo; conditions: for ED50: Rattus norvegicus, po, read-out: ED50 p.o. (dose which would inhibit the duration of symptoms by 50%)
# Description: Sensitized inbred "asthmatic rats" challenged with aerosolized antigen respond with symptoms of continuous dyspnea which is partly mediated by serotonin. […] These rats differ from normal rats in that they have non-specific bronchial hyperreactivity to a number of bronchoconstrictor agents (Brunet et al, J. Immunol., 131, 434 (1983)).
# Pretreatment with drugs is used to measure the decrease of the duration of continuous dyspnea and, at higher doses, to eliminate the response (piechuta et a1, Immunology, 38, 385 (1979)).
# (1) Animals: Male and female inbred asthmatic rats were used between 10-12 weeks of age. Their weights ranged from 190-250 gm (females) and 260-400 gm (males). Rats were matched by sex and littermates between the various treatment groups. Animals were starved overnight. Water was supplied ad lib.
# (2) Materials: Egg albumin (EA), grade V, crystallized and lyophilized was obtained from Sigma Chemical Co., St. Louis. Aluminum hydroxide was obtained from the Reheis Chemical Company, Chicago. Methysergide Bimaleate was supplied by Sandoz Ltd., Basel, Switzerland. Serotonin creatinine sulfate was obtained from Calbiochem-Behring Corp., La Jolla, Calif.
# (3) Apparatus: The challenge and subsequent respiratory recordings were carried out in a clear
# plastic box with internal dimensions 10×6×4 inches. The top of the box was removable; in use, it was held firmly in place by four clamps and an airtight seal was maintained by a soft rubber gasket. […] A Fleisch No. 0000 pneumotachograph was inserted into one end of the box and coupled to a Grass volumetric pressure transducer (PT5-A) which was then connected to a Beckman Type R Dynograph through appropriate couplers. While aerosolizing the antigen, the outlets were open and the pneumotachograph was isolated from the chamber. The outlets were closed and the pneumotachograph and the chamber were connected during the recordings of the respiratory patterns. For challenge, 2 mL of a 3% solution of antigen in saline was placed into each nebulizer and the aerosol was generated with air from a small Potter diaphragm pump operating at 10 psi and a flow of 8 liters/min.
# (4) Procedure: Rats were sensitized by injecting (s.c.) 1 mL of suspension containing 1 mg albumin (EA) and 200 mg aluminum hydroxide in saline. They were used between days 12 and 24 post sensitization. Rats were exposed to aerosol of 3% EA in saline for exactly 1 minute, then their respiratory profiles were recorded for a further 30 minutes. The duration of continuous dyspnea was measured from the respiratory recordings.
# Compounds were generally administered either orally 1, 2, 4 or 6 hours prior to challenge or intravenously 2 minutes prior to challenge. Dose volume for oral treatments was 10 mL/kg and for i.v. treatments 1 mL/kg. Compounds were dissolved in distilled water. Methysergide bimaleate was dissolved in saline and administered intravenously at dose of 3 μg/kg 5 minutes before antigen challenge.
# The sensitivity of various drug treatments were determined in terms of the decrease in duration of dyspnea in comparison with a group of vehicle treated controls. Usually, a compound was evaluated at a series of doses and an ED50 value was determined. This was defined as the dose (mg/kg) which would inhibit the duration of symptoms by 50%.
# [3] = system: leukotrienes C4, D4 and E4 and SRS-A; assay: antagonism of leukotrienes C4, D4 and E4 and of SRS-A; conditions: versus closely related compounds within the scope of EP No. 104,885
# Description: The compounds of Formula I are active as antagonists of SRS-A and of leukotriene. The activity of the compounds of Formula I can be detected and evaluated by methods known in the art. See, for example, Kadin, U.S. Pat. No. 4,296,129.
# [4] = 1.5 mg/kg p.o., 1 hour before challenge
compound,measurement,setting,value
CC[C@@H](CO)NC(=O)[C@@H]1C=C2c3cccc4c3c(cn4C)C[C@H]2N(C)C1 [methysergide],blocking of the serotonin component of continuous dyspnea,[1],completely blocked
"CCCc1c(OCCCS(=O)(=O)c2ccc([C@H](O)[C@@H](C)CC(=O)O)cc2)ccc(C(C)=O)c1O (relative stereo) [Ex. 77, (4R*,3S*)-4-[4-(3-(4-acetyl-3-hydroxy-2-propylphenoxy)propylsulfonyl)phenyl]-4-hydroxy-3-methybutanoic acid, reference compound]",Inhib. of Dyspnea,"[2]; 0.15 mg/kg p.o., 1 hour before challenge",33%
same,Inhib. of Dyspnea,"[2]; 0.5 mg/kg p.o., 1 hour before challenge",29%
same,Inhib. of Dyspnea,[2]; [4],29%
same,Inhib. of Dyspnea,"[2]; 5.0 mg/kg p.o., 1 hour before challenge",44%
same,ED50,[2]; 1 hr before challenge,> 5 mg/kg
"CCCc1c(O)c(C(C)=O)cc(F)c1OCCCS(=O)(=O)c1ccc([C@H](O)[C@@H](C)CC(=O)O)cc1 (relative stereo) [Compound I, (4R*,3S*)-4-[4-(3-(4-acetyl-6-fluoro-3-hydroxy-2-propylphenoxy)propyl-sulfonyl)phenyl]-4-hydroxy-3-methylbutanoic acid]",Inhib. of Dyspnea,"[2]; 0.05 mg/kg p.o., 2 hours before challenge",40%
same,Inhib. of Dyspnea,"[2]; 0.15 mg/kg p.o., 2 hours before challenge",48%
same,Inhib. of Dyspnea,"[2]; 0.5 mg/kg p.o., 2 hours before challenge",57%
same,Inhib. of Dyspnea,[2]; [4],55%
same,Inhib. of Dyspnea,"[2]; 1.5 mg/kg p.o., 2 hours before challenge",59% and 65%
same,Inhib. of Dyspnea,"[2]; 1.5 mg/kg p.o., 4 hours before challenge",65%
same,Inhib. of Dyspnea,"[2]; 1.5 mg/kg p.o., 6 hours before challenge",63%
same,ED50,[2]; 2 hrs before challenge,0.21 mg/kg
same,absorption by the oral route,[2]; judged from activity p.o. in the Asthmatic Rat Assay,good absorption by the oral route
same,duration of action,"[2]; p.o., in words",satisfactory duration of action
same,potency,"[2]; p.o., in words",high potency
same,activity compared with the closely related reference compounds,"[2]; versus Ex. 77 and Ex. 93 of EP 104,885, p.o.",significantly more active than the closely related reference compounds
same,"potency as antagonists of leukotrienes C4, D4 and E4 and of SRS-A",[3],unexpectedly much more potent
"CCCc1c(O)c(C(C)=O)cc(F)c1OCCCSc1ccc([C@H](O)[C@@H](C)CC(=O)O)cc1 (relative stereo) [Ex. 93, (4R*,3S*)-4-[4-(3-(4-acetyl-6-fluoro-3-hydroxy-2-propylphenoxy)propylthio)phenyl]-4-hydroxy-3-methylbutanoic acid, reference compound]",Inhib. of Dyspnea,[2]; [4],26%
